From publication PMC9025269, “Synthesis and Anti-Hepatitis B Activities of 3′-Fluoro-2′-Substituted Apionucleosides” (Molecules, 2022)

Key:
Assay type in all cases: biochemical
[1] = target: T1, human DNA polymerase β (Homo sapiens, UniProt P06746); assay: Human DNA polymerase β DdDp assay
T1 construct: purchased CHIMERx 1077-1
Protocol: (§1) The DNA-dependent DNA polymerization (DdDp) activity of human DNA polymerases α, β, and γ was measured as described previously. Briefly, the assays were run with 5 U/mL recombinant DNA polymerase α (CHIMERx, cat#1075-1), 0.5 U/mL recombinant DNA polymerase β (CHIMERx, cat#1077-1), or 0.1 μg/mL recombinant DNA polymerase γ (Abcam, cat#196066), 62 μg/mL activated calf thymus DNA, 50 mM Tris-HCl (pH 8.0), 60 mM KCl, 5 mM MgCl2, 4 mM dithiothreitol (DTT), 0.1 mg/mL BSA, 2 μM dCTP, 2 μM dATP, 2 μM dGTP, 0.05 μCi/μL ^3H-dTTP (Perkin Elmer) and compounds at various concentrations at 30 °C for 2 h. The 50 μL reactions were processed following the same filter plate method as described above for HIV-1 RT. Acid-precipitated tritiated DNA products retained on the filters were detected by a Trilux MicroBeta scintillation reader (Perkin Elmer). All data were analyzed as described above for HIV-1 RT.

[2] = target: T2, human DNA polymerase γ (Homo sapiens, UniProt P54098); assay: Human DNA polymerase γ DdDp assay
T2 construct: purchased Abcam 196066
T2 sequence (P54098 1-1239): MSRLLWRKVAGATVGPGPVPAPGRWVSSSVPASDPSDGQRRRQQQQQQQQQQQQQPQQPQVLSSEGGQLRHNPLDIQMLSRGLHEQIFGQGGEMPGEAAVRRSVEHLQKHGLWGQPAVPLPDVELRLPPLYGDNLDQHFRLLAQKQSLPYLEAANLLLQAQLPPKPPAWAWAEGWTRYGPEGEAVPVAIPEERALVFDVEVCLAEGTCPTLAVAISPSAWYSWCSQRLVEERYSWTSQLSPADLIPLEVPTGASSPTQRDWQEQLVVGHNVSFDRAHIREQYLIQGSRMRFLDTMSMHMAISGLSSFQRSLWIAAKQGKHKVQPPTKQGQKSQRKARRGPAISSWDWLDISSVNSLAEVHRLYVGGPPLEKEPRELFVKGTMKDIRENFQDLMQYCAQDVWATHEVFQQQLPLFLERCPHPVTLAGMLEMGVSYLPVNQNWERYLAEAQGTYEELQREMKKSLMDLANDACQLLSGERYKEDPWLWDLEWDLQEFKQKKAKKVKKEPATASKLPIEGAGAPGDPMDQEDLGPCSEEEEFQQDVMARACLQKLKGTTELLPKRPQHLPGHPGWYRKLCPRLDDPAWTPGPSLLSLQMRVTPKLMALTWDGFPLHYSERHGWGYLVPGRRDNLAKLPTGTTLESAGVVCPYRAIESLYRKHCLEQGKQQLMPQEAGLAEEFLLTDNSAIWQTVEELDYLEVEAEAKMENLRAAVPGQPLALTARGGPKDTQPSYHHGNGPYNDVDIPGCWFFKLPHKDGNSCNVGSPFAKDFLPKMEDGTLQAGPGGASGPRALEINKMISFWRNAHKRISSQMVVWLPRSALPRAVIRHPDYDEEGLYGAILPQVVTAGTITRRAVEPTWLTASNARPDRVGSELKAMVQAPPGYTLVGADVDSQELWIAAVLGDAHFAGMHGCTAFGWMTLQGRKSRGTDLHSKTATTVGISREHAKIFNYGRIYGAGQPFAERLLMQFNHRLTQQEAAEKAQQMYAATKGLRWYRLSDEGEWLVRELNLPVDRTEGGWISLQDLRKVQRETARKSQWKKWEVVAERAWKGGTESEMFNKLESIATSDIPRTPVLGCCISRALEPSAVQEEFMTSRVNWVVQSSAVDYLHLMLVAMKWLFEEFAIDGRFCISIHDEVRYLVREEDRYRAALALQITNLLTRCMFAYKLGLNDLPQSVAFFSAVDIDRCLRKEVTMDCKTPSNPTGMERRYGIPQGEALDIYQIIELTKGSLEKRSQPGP
Protocol: as §1

[3] = target: T3, HBV polymerase (Hepatitis B virus genotype D subtype ayw, UniProt P03156); assay: HBV polymerase RdDp activity assay; details: read-out: HBV pol IC50
T3 construct: Recombinant HBV polymerase (Hepatitis B virus genotype D subtype ayw, full length); made in house; host or cells: Sf9 insect cells (baculovirus)
T3 sequence (P03156 whole entry): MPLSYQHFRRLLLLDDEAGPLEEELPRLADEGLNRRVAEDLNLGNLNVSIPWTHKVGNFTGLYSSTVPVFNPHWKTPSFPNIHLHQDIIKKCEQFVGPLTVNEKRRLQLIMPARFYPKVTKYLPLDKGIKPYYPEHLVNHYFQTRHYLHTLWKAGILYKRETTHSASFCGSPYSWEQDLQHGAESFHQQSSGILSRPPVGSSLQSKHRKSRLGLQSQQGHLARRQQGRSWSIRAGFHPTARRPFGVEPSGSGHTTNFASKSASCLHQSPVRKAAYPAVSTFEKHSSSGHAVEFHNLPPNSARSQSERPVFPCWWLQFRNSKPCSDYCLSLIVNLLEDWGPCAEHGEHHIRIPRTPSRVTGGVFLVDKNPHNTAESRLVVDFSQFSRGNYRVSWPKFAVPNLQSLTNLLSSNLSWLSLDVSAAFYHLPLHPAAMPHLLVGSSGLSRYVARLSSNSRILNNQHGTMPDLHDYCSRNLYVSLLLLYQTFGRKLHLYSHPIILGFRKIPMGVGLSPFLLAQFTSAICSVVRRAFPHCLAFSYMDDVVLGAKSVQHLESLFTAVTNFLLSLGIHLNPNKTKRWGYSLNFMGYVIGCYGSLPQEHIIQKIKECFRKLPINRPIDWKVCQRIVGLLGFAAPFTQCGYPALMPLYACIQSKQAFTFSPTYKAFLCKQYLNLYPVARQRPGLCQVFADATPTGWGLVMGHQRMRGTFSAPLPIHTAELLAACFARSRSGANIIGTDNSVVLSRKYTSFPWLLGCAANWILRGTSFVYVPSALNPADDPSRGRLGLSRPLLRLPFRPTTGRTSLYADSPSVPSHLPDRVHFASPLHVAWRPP
From the text: HIV-1 reverse transcriptase (HIV-1 RT) was purchased from Abcam (cat#ab63979). Recombinant HBV polymerase (Hepatitis B virus genotype D subtype ayw, full length) was cloned using the baculovirus system, expressed in sf9 cells, and purified with similar strategy and methods described by Lanford et al.. A DNA primer (5′-[…]-3′) was synthesized by IDTDNA and a 358-nt RNA template was synthesized in-house using Megascript T7 transcription kit (ThermoFisher, cat#AM1334). dNTPs were purchased from Thermo Fisher and ^3H-dTTP from Perkin Elmer. Filter plates were purchased from Millipore (cat#MABN0V050) and microscint-20 was purchased from Perkin Elmer (cat#6013621).
The RdDp activity of HBV polymerase was measured similarly as described for the HIV-1 RT. To test compound inhibition effect, the reactions were performed at 30 °C for 120 min in a reaction mixture containing reaction buffer (50 mM Tris-Cl, pH 7.5, 100 mM KCl, 12.5 mM MgCl2, 4 mM DTT), 15 µg/mL polymerase, 0.5 µM DNA primer, 0.05 µM RNA template, 10% DMSO, 0.046 µM dATP, 0.057 µM dGTP, 0.017 µM dCTP, 0.32 µM ^3H-dTTP, and compounds at various concentrations.
All data were analyzed with GraphPad Prism. […]

## Nc1ncnc2c1ncn2[C@@H]1OC[C@](F)(COP(=O)(O)OP(=O)(O)OP(=O)(O)O)[C@H]1CO [Compound 38, ((3S,4S,5R)-5-(6-Amino-9H-purin-9-yl)-3-fluoro-4-(hydroxymethyl)tetrahydrofuran-3-yl)methyl triphosphate]
[1]
  IC50: > 100 µM
[2]
  IC50: > 100 µM
[3]
  IC50: 0.12 µM
